Experimental data reported in ChEMBL document CHEMBL5154702, “Synthesis and biological evaluation of aminobenzamides containing purine moiety as class I histone deacetylases inhibitors” (Bioorg Med Chem, 2022).
Active and inactive are the calls of the source. No cut-off for these calls is given here.

Key:
Histone deacetylase 8 = target: T1, Histone deacetylase 8 (Homo sapiens, UniProt Q9BY41); experiment: Inhibition of human full-length C-terminal His-tagged HDAC8 expressed in baculovirus infected Sf9 insect cell using fluorogenic HDAC class 2a substrate measured after 30 mins by fluorimetry
T1 sequence (Q9BY41 whole entry): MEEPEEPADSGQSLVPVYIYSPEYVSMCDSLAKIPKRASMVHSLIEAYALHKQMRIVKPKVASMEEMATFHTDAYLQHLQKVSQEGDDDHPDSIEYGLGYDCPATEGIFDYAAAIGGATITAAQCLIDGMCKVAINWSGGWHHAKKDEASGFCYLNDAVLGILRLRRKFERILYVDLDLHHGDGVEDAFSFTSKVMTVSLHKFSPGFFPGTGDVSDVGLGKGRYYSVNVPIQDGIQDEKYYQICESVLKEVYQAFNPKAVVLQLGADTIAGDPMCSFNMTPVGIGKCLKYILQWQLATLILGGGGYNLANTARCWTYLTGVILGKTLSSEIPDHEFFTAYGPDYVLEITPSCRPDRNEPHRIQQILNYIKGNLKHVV

HCT-116 [1] = experiment: Induction of apoptosis in human HCT-116 cells assessed as late apoptotic cells at 1 uM measured after 24 hrs by Annexin V-FITC/propidium iodide staining based flow cytometry (reference value: 3.43%); assay type: functional
HCT-116 [2] = experiment: Cell cycle arrest in human HCT-116 cells assessed as accumulation of cells at G2/M phase at 5 uM measured after 24 hrs by propidium iodide staining based flow cytometry (reference value: 22.74%); assay type: functional
HCT-116 [3] = experiment: Induction of cell morphological changes in human HCT-116 cells assessed as nuclear fragmentation at 0.5 to 5 uM measured after 24 hrs by Hoechst 33258 staining based fluorescence microscopy; assay type: functional; settings: dose 0.5-5 µM
HCT-116 [4] = experiment: Induction of cell morphological changes in human HCT-116 cells assessed as chromatin condensation at 0.5 to 5 uM measured after 24 hrs by Hoechst 33258 staining based fluorescence microscopy; assay type: functional; settings: dose 0.5-5 µM
HCT-116 [5] = experiment: Induction of cell morphological changes in human HCT-116 cells assessed as cell fragmentation at 0.5 to 5 uM measured after 24 hrs by phase contrast microscopy; assay type: functional, cell-based; settings: dose 0.5-5 µM
[6] = Half life in dog liver microsomes at 13.8 uM by HPLC analysis; assay type: ADME, Canis lupus familiaris, Microsome
HCT-116 [7] = experiment: Induction of apoptosis in human HCT-116 cells assessed as early apoptotic cells at 0.5 uM measured after 24 hrs by Annexin V-FITC/propidium iodide staining based flow cytometry (reference value: 1.87%); assay type: functional
HCT-116 [8] = experiment: Induction of apoptosis in human HCT-116 cells assessed as necrotic cells at 5 uM measured after 24 hrs by Annexin V-FITC/propidium iodide staining based flow cytometry (reference value: 7.39%); assay type: functional
HCT-116 [9] = experiment: Cell cycle arrest in human HCT-116 cells assessed as up regulation of Bax expression at 5 uM by Western blot analysis; assay type: functional, cell-based; settings: time 6-48 hrs, TDE = time-dependent effect
HCT-116 [10] = experiment: Cell cycle arrest in human HCT-116 cells assessed as up regulation of p21 expression at 5 uM by Western blot analysis; assay type: functional, cell-based; settings: time 6-48 hrs, TDE = time-dependent effect
HCT-116 [11] = experiment: Cell cycle arrest in human HCT-116 cells assessed as down regulation of CDK2 expression at 5 uM by Western blot analysis; assay type: functional, cell-based; settings: time 6-48 hrs, TDE = time-dependent effect
[12] = target: Histone deacetylase (Homo sapiens) (UniProt Q13547+O15379+Q9UBN7+Q92769+Q9UQL6+Q8WUI4+Q9BY41+Q96DB2+P56524+Q9UKV0+Q969S8); experiment: Potency index, ratio of SAHA IC50 to test compound IC50 for inhibition of HDAC in human HeLa cell nuclear extracts using color de Lys as substrate
[13] = Half life in human liver microsomes at 13.8 uM by HPLC analysis; assay type: ADME, Microsome
HCT-116 [14] = experiment: Cell cycle arrest in human HCT-116 cells assessed as up regulation of Bax expression measured after 24 hrs by Western blot analysis; assay type: functional, cell-based; settings: dose 0.1-10 µM, DDE = dose-dependent effect
HCT-116 [15] = experiment: Induction of cell morphological changes in human HCT-116 cells assessed as cell shrinkage at 0.5 to 5 uM measured after 24 hrs by phase contrast microscopy; assay type: functional, cell-based; settings: dose 0.5-5 µM
HCT-116 [16] = experiment: Cell cycle arrest in human HCT-116 cells assessed as increase in accumulation of cells at G0/G1 phase measured after 24 hrs by propidium iodide staining based flow cytometry; assay type: functional; settings: dose 0.1-10 µM, DDE = dose-dependent effect
HCT-116 [17] = experiment: Cell cycle arrest in human HCT-116 cells assessed as accumulation of cells at G0/G1 phase at 10 uM measured after 12 hrs by propidium iodide staining based flow cytometry (reference value: 58.05%); assay type: functional
HCT-116 [18] = experiment: Cell cycle arrest in human HCT-116 cells assessed as down regulation of Bcl-2 expression at 5 uM by Western blot analysis; assay type: functional, cell-based; settings: time 6-48 hrs, TDE = time-dependent effect
Histone deacetylase 1 [19] = target: T2, Histone deacetylase 1 (Homo sapiens, UniProt Q13547); experiment: Potency index, ratio of MS-275 IC50 to test compound IC50 for inhibition of recombinant human full-length C-terminal Flag-His6-tagged HDAC1 (1 to 482 residues) expressed in Sf9 insect cells
MDA-MB-231 = experiment: Potency index, ratio of MS-275 IC50 to test compound IC50 for antiproliferative activity against human MDA-MB-231 cells; assay type: functional
[20] = Intrinsic clearance in rat liver microsomes assessed per mg protein at 13.8 uM by HPLC analysis; assay type: ADME, Microsome
HCT-116 [21] = experiment: Induction of cell morphological changes in human HCT-116 cells assessed as […] deformation at 0.5 to 5 uM measured after 24 hrs by phase contrast microscopy; assay type: functional, cell-based; settings: dose 0.5-5 µM
Histone deacetylase 4 = Histone deacetylase 4 (Homo sapiens, UniProt P56524); experiment: Inhibition of recombinant human N-terminal GST-fused/C-terminal His-tagged HDAC4 (627 to 1084 residues) expressed in baculovirus infected Sf9 insect cells using fluorogenic HDAC class 2a substrate measured after 30 mins by fluorimetry
[22] = Half life in rat liver microsomes at 13.8 uM by HPLC analysis; assay type: ADME, Microsome
HCT-116 [23] = experiment: Cell cycle arrest in human HCT-116 cells assessed as accumulation of cells at G0/G1 phase at 10 uM measured after 6 hrs by propidium iodide staining based flow cytometry (reference value: 58.05%); assay type: functional
HCT-116 [24] = experiment: Cell cycle arrest in human HCT-116 cells assessed as accumulation of cells at G2/M phase at 10 uM measured after 12 hrs by propidium iodide staining based flow cytometry (reference value: 22.74%); assay type: functional
HCT-116 [25] = experiment: Induction of apoptosis in human HCT-116 cells assessed as viable cells at 1 uM measured after 24 hrs by Annexin V-FITC/propidium iodide staining based flow cytometry (reference value: 87.3%); assay type: functional; settings: read-out: Activity
HCT-116 [26] = experiment: Cell cycle arrest in human HCT-116 cells assessed as down regulation of cyclin D1 expression at 5 uM by Western blot analysis; assay type: functional, cell-based; settings: time 6-48 hrs, TDE = time-dependent effect
Histone deacetylase 1 [27] = target: T2, Histone deacetylase 1; experiment: Inhibition of recombinant human full-length C-terminal Flag-His6-tagged HDAC1 (1 to 482 residues) expressed in Sf9 insect cells using fluorogenic HDAC substrate measured after 30 mins by fluorimetry
HCT-116 [28] = experiment: Induction of cell morphological changes in human HCT-116 cells assessed as cell vacuolization at 0.5 to 5 uM measured after 24 hrs by phase contrast microscopy; assay type: functional, cell-based; settings: dose 0.5-5 µM
HCT-116 [29] = experiment: Antiproliferative activity against human HCT-116 cells measured after 48 hrs by MTT assay; assay type: functional, cell-based; settings: HCT-116, 48 h

T2 sequence (Q13547 whole entry, the tested form may be a part): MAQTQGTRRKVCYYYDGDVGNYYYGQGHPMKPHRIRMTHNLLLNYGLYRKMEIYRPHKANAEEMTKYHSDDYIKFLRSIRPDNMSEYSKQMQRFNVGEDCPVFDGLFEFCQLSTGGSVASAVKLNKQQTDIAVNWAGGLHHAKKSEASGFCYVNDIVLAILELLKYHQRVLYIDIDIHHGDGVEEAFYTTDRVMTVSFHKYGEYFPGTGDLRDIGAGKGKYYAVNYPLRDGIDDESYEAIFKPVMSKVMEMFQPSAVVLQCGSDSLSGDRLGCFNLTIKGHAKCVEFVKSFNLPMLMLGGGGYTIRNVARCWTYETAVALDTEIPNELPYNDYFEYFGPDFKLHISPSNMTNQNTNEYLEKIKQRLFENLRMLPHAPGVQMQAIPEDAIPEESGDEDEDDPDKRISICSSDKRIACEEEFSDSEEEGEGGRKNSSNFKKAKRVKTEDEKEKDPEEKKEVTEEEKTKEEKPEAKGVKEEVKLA
Chain of Histone deacetylase 4 (P56524 whole entry, the tested form may be a part): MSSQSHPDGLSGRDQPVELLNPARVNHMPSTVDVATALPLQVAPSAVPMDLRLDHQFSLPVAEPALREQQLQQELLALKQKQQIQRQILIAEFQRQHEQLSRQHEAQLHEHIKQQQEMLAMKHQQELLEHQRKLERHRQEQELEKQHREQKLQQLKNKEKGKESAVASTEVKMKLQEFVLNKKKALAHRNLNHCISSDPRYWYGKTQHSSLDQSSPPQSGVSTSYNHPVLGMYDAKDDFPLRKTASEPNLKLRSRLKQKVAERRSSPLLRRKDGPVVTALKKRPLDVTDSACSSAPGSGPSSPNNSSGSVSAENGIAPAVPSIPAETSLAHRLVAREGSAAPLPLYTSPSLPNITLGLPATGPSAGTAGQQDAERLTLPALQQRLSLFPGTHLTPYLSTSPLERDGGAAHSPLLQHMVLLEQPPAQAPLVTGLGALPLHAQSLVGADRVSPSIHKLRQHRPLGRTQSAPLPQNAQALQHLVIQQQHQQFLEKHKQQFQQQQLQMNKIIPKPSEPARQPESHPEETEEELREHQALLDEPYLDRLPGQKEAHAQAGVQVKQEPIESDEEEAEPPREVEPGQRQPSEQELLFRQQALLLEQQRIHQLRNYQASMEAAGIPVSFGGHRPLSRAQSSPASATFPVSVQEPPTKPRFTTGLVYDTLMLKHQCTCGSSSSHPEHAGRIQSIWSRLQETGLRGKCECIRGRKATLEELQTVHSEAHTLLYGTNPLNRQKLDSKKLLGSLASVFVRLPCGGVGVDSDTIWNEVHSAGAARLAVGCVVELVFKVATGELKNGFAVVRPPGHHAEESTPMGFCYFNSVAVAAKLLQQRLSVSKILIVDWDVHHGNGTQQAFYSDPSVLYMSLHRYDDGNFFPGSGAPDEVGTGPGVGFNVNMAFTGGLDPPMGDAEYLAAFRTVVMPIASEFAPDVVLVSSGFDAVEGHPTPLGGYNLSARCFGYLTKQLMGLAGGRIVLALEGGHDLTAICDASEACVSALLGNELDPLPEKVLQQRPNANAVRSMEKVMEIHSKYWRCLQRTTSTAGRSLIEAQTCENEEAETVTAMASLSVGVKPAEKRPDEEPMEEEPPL

For `CCCCNc1nc(Cl)nc2c1ncn2Cc1ccc(C(=O)Nc2ccccc2N)cc1`, the IC50 (Histone deacetylase 8) was 0.948 µM, the Activity (HCT-116 [1]) was 8.94% and the Activity (HCT-116 [2]) was 14.39%. For the same compound, the Activity (HCT-116 [3]) was “Active”, the Activity (HCT-116 [4]) was “Active” and the Activity (HCT-116 [5]) was “Active”. It also gave a half-life at 13.8 µM [6] of 3.73 h, an Activity (HCT-116 [7]) of 33.1% and an Activity (HCT-116 [8]) of 0.902%. For the same compound, the Activity (HCT-116 [9]) was “Tde”, the Activity (HCT-116 [10]) was “Tde” and the Activity (HCT-116 [11]) was “Tde”. For the same compound, the Ratio IC50 [12] was 4, the half-life at 13.8 µM [13] was 4.62 h and the Activity (HCT-116 [14]) was “Dde”. For the same compound, the Activity (HCT-116 [15]) was “Active”, the Activity (HCT-116 [16]) was “Dde” and the Activity (HCT-116 [17]) was 71.11%. For the same compound, the Activity (HCT-116 [18]) was “Tde”, the Ratio IC50 (Histone deacetylase 1 [19]) was 12 and the “Ratio IC50” value (MDA-MB-231) was 4. For the same compound, the CLint [20] was 9.6 µL/min/mg, the Activity (HCT-116 [21]) was “Active” and the IC50 (Histone deacetylase 4) was over 100 µM. The half-life at 13.8 µM [22] was 1.2 h, the Activity (HCT-116 [23]) was 65.62% and the Activity (HCT-116 [24]) was 18.82%. For the same compound, the viability at 1 µM (HCT-116 [25]) was 40.4%, the Activity (HCT-116 [26]) was “Tde” and the IC50 (Histone deacetylase 1 [27]) was 0.0551 µM. The Activity (HCT-116 [28]) was “Active” and the IC50 (HCT-116 [29]) was 0.5 µM.
